{"source": "PubChem BioAssay (NCI)", "assay_in_all_cases": "NCI anticancer screen, dose series, 48 h", "key": {"SW-620 colon": {"tested_on": "SW-620 colon"}, "UACC-257 melanoma": {"tested_on": "UACC-257 melanoma"}, "A498 renal": {"tested_on": "A498 renal"}, "HCT-15 colon": {"tested_on": "HCT-15 colon"}, "OVCAR-4 ovarian": {"tested_on": "OVCAR-4 ovarian"}, "SF-539 CNS": {"tested_on": "SF-539 CNS"}, "HL-60(TB) leukemia": {"tested_on": "HL-60(TB) leukemia"}, "UACC-62 melanoma": {"tested_on": "UACC-62 melanoma"}, "SF-295 CNS": {"tested_on": "SF-295 CNS"}, "MOLT-4 leukemia": {"tested_on": "MOLT-4 leukemia"}, "NCI-H23 lung": {"tested_on": "NCI-H23 lung"}, "COLO 205 colon": {"tested_on": "COLO 205 colon"}, "OVCAR-3 ovarian": {"tested_on": "OVCAR-3 ovarian"}, "EKVX NSCLC": {"tested_on": "EKVX NSCLC"}, "SN12C renal": {"tested_on": "SN12C renal"}, "SK-OV-3 ovarian": {"tested_on": "SK-OV-3 ovarian"}, "HCC-2998 colon": {"tested_on": "HCC-2998 colon"}, "UO-31 renal": {"tested_on": "UO-31 renal"}, "RXF 393 renal": {"tested_on": "RXF 393 renal"}, "T-47D breast": {"tested_on": "T-47D breast"}, "SNB-75 CNS": {"tested_on": "SNB-75 CNS"}, "NCI-H226 lung": {"tested_on": "NCI-H226 lung"}, "KM12 colon": {"tested_on": "KM12 colon"}, "DU-145 prostate": {"tested_on": "DU-145 prostate"}, "MDA-MB-435": {"tested_on": "MDA-MB-435"}, "SK-MEL-28 melanoma": {"tested_on": "SK-MEL-28 melanoma"}, "HT29 colon": {"tested_on": "HT29 colon"}, "SF-268 CNS": {"tested_on": "SF-268 CNS"}}, "note": "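Following 48 hours of exposure in 96-well plates, responses at five concentrations were used to interpolate endpoints linearly. At the GI50, growth is halved. TGI: concentration producing complete growth inhibition.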"}
{"smiles": "O=C(/C=C/c1ccccc1)c1nc2ccccc2n1Cc1ccc(Br)cc1", "values": [{"measurement": "GI50", "setting": "SW-620 colon", "result": 2, "unit": "µM"}, {"measurement": "TGI", "setting": "SW-620 colon", "result": 4.09, "unit": "µM"}, {"measurement": "GI50", "setting": "UACC-257 melanoma", "result": 3.12, "unit": "µM"}, {"measurement": "TGI", "setting": "UACC-257 melanoma", "result": 11.9, "unit": "µM"}, {"measurement": "GI50", "setting": "A498 renal", "result": 15.1, "unit": "µM"}, {"measurement": "TGI", "setting": "A498 renal", "result": 28.4, "unit": "µM"}, {"measurement": "GI50", "setting": "HCT-15 colon", "result": 1.67, "unit": "µM"}, {"measurement": "TGI", "setting": "HCT-15 colon", "result": 3.47, "unit": "µM"}, {"measurement": "GI50", "setting": "OVCAR-4 ovarian", "result": 8.7, "unit": "µM"}, {"measurement": "TGI", "setting": "OVCAR-4 ovarian", "result": 81.5, "unit": "µM"}, {"measurement": "GI50", "setting": "SF-539 CNS", "result": 1.86, "unit": "µM"}, {"measurement": "TGI", "setting": "SF-539 CNS", "result": 3.54, "unit": "µM"}, {"measurement": "GI50", "setting": "HL-60(TB) leukemia", "result": 1.61, "unit": "µM"}, {"measurement": "TGI", "setting": "HL-60(TB) leukemia", "result": 4.17, "unit": "µM"}, {"measurement": "GI50", "setting": "UACC-62 melanoma", "result": 1.85, "unit": "µM"}, {"measurement": "TGI", "setting": "UACC-62 melanoma", "result": 4.68, "unit": "µM"}, {"measurement": "GI50", "setting": "SF-295 CNS", "result": 2.22, "unit": "µM"}, {"measurement": "TGI", "setting": "SF-295 CNS", "result": 5.25, "unit": "µM"}, {"measurement": "GI50", "setting": "MOLT-4 leukemia", "result": 1.84, "unit": "µM"}, {"measurement": "TGI", "setting": "MOLT-4 leukemia", "result": 5.47, "unit": "µM"}, {"measurement": "GI50", "setting": "NCI-H23 lung", "result": 2.01, "unit": "µM"}, {"measurement": "TGI", "setting": "NCI-H23 lung", "result": 4.29, "unit": "µM"}, {"measurement": "GI50", "setting": "COLO 205 colon", "result": 2.36, "unit": "µM"}, {"measurement": "TGI", "setting": "COLO 205 colon", "result": 5, "unit": "µM"}, {"measurement": "GI50", "setting": "OVCAR-3 ovarian", "result": 2.28, "unit": "µM"}, {"measurement": "TGI", "setting": "OVCAR-3 ovarian", "result": 5.56, "unit": "µM"}, {"measurement": "GI50", "setting": "EKVX NSCLC", "result": 2.75, "unit": "µM"}, {"measurement": "TGI", "setting": "EKVX NSCLC", "result": 8.44, "unit": "µM"}, {"measurement": "GI50", "setting": "SN12C renal", "result": 3.46, "unit": "µM"}, {"measurement": "TGI", "setting": "SN12C renal", "result": 12.4, "unit": "µM"}, {"measurement": "GI50", "setting": "SK-OV-3 ovarian", "result": 13.2, "unit": "µM"}, {"measurement": "TGI", "setting": "SK-OV-3 ovarian", "result": 57.6, "unit": "µM"}, {"measurement": "GI50", "setting": "HCC-2998 colon", "result": 1.83, "unit": "µM"}, {"measurement": "TGI", "setting": "HCC-2998 colon", "result": 3.42, "unit": "µM"}, {"measurement": "GI50", "setting": "UO-31 renal", "result": 1.46, "unit": "µM"}, {"measurement": "TGI", "setting": "UO-31 renal", "result": 2.97, "unit": "µM"}, {"measurement": "GI50", "setting": "RXF 393 renal", "result": 1.51, "unit": "µM"}, {"measurement": "TGI", "setting": "RXF 393 renal", "result": 2.84, "unit": "µM"}, {"measurement": "GI50", "setting": "T-47D breast", "result": 2.36, "unit": "µM"}, {"measurement": "TGI", "setting": "T-47D breast", "result": 10.2, "unit": "µM"}, {"measurement": "GI50", "setting": "SNB-75 CNS", "result": 3.83, "unit": "µM"}, {"measurement": "TGI", "setting": "SNB-75 CNS", "result": 22.1, "unit": "µM"}, {"measurement": "GI50", "setting": "NCI-H226 lung", "result": 3.8, "unit": "µM"}, {"measurement": "TGI", "setting": "NCI-H226 lung", "result": 15.9, "unit": "µM"}, {"measurement": "GI50", "setting": "KM12 colon", "result": 2.95, "unit": "µM"}, {"measurement": "TGI", "setting": "KM12 colon", "result": 10.2, "unit": "µM"}, {"measurement": "GI50", "setting": "DU-145 prostate", "result": 3.96, "unit": "µM"}, {"measurement": "TGI", "setting": "DU-145 prostate", "result": 18.6, "unit": "µM"}, {"measurement": "GI50", "setting": "MDA-MB-435", "result": 2.25, "unit": "µM"}, {"measurement": "TGI", "setting": "MDA-MB-435", "result": 5.95, "unit": "µM"}, {"measurement": "GI50", "setting": "SK-MEL-28 melanoma", "result": 1.84, "unit": "µM"}, {"measurement": "TGI", "setting": "SK-MEL-28 melanoma", "result": 3.74, "unit": "µM"}, {"measurement": "GI50", "setting": "HT29 colon", "result": 2.91, "unit": "µM"}, {"measurement": "TGI", "setting": "HT29 colon", "result": 7.34, "unit": "µM"}, {"measurement": "GI50", "setting": "SF-268 CNS", "result": 6.92, "unit": "µM"}, {"measurement": "TGI", "setting": "SF-268 CNS", "result": "> 100", "unit": "µM"}]}
